# Patent US12077607B2, “Functional and therapeutic effects of PAR4 cleavage by cathepsin G” (UNIVERSITY OF UTAH RESEARCH FOUNDATION, priority 2021, dated 2024)
# Assays:
# washed platelets [1] = assay: Platelet calcium flux assay; assay type: cell-based, human; details: CatG 500 nM
# Method: Platelet calcium flux assay. Washed platelets were incubated at 37° C. for 1 hour in Tyrode's buffer (supplemented with pgel and heparin) with Fura-2AM (final concentration 2 μM). Platelets were washed and resuspended to a final concentration of 4×10^8/mL. Platelets were dispensed into a Costar 96-well half area clear bottom plate and placed in the Flexstation 3 (Molecular Devices) where cathepsin G (500 nM), buffer, or peptides (2 mM) were injected onto cells and calcium flux monitored.
# (§1) GYPGQV-NH2 (SEQ ID NO: 5), RALLLGWVPTR-NH2 (SEQ ID NO: 1), ALLLGWVPTR-NH2 (SEQ ID NO: 2), RALLLG-NH2 (SEQ ID NO: 4). Peptides were synthesized by BIOMATIK (Wilmington, DE, USA) at similar purities. All peptides were suspended in 50% DMSO and 50% ethanol. To measure platelet activation, washed platelets were stimulated with various concentrations of the peptide in the presence of CD41-APC, P-selectin (PE) and PAC-1 (FITC) for 15 minutes at 37° C. and then fixed with FACS Lysis Buffer. Samples were immediately run on a Cytoflex flow cytometer. In some experiments, platelets were stimulated with peptides and platelet aggregation performed as described above. Platelet calcium flux was induced by RALLLGWVPTR (2 mM; SEQ ID NO: 1), CatG (500 nM), ALLLGWVPTR (2 mM; SEQ ID NO: 2) or tyrodes buffer and monitored as described above.
# washed platelets [2] = assay: Platelet activation by flow cytometry (PAC-1 binding, P-selectin); assay type: cell-based, human
# Method: Platelet isolation, aggregation, and activation. Human washed platelets were prepared and resuspended in Tyrode's Buffer at 2×10^8/mL as described (Edelstein et al., Nat Med. 2013; 19(12):1609-1616). For human and dog platelet comparisons, platelets were prepared using a modified human platelet protocol with final concentrations of […] (Cayman Chemical, Ann Arbor, MI, USA) used during centrifugation steps. Centrifugations after Tyrode's washes was decreased to 1,250×g as described in Cremer et al., PLOS One. 2019; 14(11): e0224891. Platelet aggregation was measured under stirring conditions at 37° C. using a PAP-8E aggregometer after treatment with the following agonists: arachidonic acid (Bio/Data Corporation, Horsham, PA, USA), cathepsin G, elastase, proteinase 3 (Athens Research Group), α-thrombin (Sigma, St. Louis, MO, USA), PAR-1 peptide (SFLLRN) (GL Biochem, China). P-selectin and PAC-1 were measured as previously described (Yee et al., J Thromb Haemost. 2006; 4(9):2043-2050; Tourdot et al., Arterioscler Thromb Vasc Biol. 2014; 34(12):2644-2650).
# as §1
# [3] = CatG stimulation, increasing concentrations
substance,measurement,setting,value
CatG: serine protease cathepsin G released by activated neutrophils,"peak platelet calcium flux, CatG compared with RALLLGWVPTR",washed platelets [1]; RA-11mer 2 mM,similar
same,platelet calcium flux,"washed platelets [1]; peptides 2 mM, FURA2-AM loaded washed platelets",decreased over time
same,"P-selectin expression, PAR4 Thr120 homozygous platelets compared with Ala120",washed platelets [2]; [3],modest but significantly greater
same,"αIIbβ3 activation, PAR4 Thr120 homozygous platelets compared with Ala120",washed platelets [2]; [3],modest but significantly greater
same,αIIbβ3 activation (PAC-1 binding) induced by neutrophil serine protease,"washed platelets [2]; washed platelets, varying concentrations",only protease to induce
